According to article PMC4655410, “Hepatitis B virus efficiently infects non-adherent hepatoma cells via human sodium taurocholate cotransporting polypeptide” (Scientific Reports, 2015):
“Also recorded” adds a separate entry of the source. Read-outs that look alike come from different tables or passages of the source.

Experiments:
in vitro = details: human
Experimental: (§1) Cell viability was evaluated using the MTS assay system (CellTiter 96 AQueous One Solution Cell Proliferation Assay, Promega, Madison, WI, USA).
(§2) real-time qRT-PCR in cells harvested at 6 dpi (black bars). Cell viability was measured
(§3) by the MTS assay (black line with a triangle). i. […]
(§4) non-adherent phase (black columns) in the presence of 0, 10 or 30 nM proscillaridin A. […]

HBV [1] = assay: Inhibition of HBV infection of non-adherent HepG2/NTCPA3 cells (intracellular HBV RNA, real-time qRT-PCR); type: cell-based, Hepatitis B virus (genotype D); details: for IC50: Hepatitis B virus, read-out: IC50 (anti-HBV activity); for Selectivity Index: SI from CC50 and IC50
Experimental: In the case of the non-adherent cell conditions of infection, HepG2 cells, the derived cells, or differentiated HepaRG cells were harvested using 0.25% trypsin/ethylenediaminetetraacetic acid (EDTA) solution (Sigma). After washing once with 10% FBS-DMEM, the resulting cells were suspended in the primary hepatocyte maintenance medium (PMM) consisting of William’s E medium (Sigma) supplemented with 2 mM L-glutamine, 5 μg/ml transferrin (Sigma), 10 ng/ml recombinant human epidermal growth factor (PeproTech, Rocky Hill, NJ, USA), 3 μg/ml insulin, 18 μg/ml hydrocortisone, 40 ng/ml dexamethasone (Sigma), 5 ng/ml sodium selenite (Sigma), 2% DMSO (Wako), 100 U/ml penicillin, and 100 μg/ml streptomycin (Gibco). The suspended cells (1.25 × 10^5 cells) were added to each well following the addition of virus, and were then immediately mixed well in 0.5 ml of PMM supplemented with 4% polyethylene glycol (PEG) 8000 (Sigma) and 2% FBS in each well of a 24-well collagen-coated plate. The resulting mixtures were incubated at 37 °C (0 days post-infection, dpi).
The cells infected in non-adherent or adherent phase were washed three times with phosphate-buffered saline (PBS) at 1 dpi and incubated in fresh PMM supplemented with 10% FBS. The cells were re-seeded at 2 dpi at a density of 2 × 10^4 cells/well (48-well collagen-coated plate) or 4 × 10^4 cells/well (24-well collagen-coated plate) and maintained in PMM supplemented with 10% FBS. The cells and the culture supernatants were collected at each indicated dpi in order to evaluate the amounts of viral proteins, RNA, and DNA.
Simvastatin, proscillaridin A, bufalin, convallatoxin, digitoxin, digoxin, and azelastine were purchased from Sigma. Fluvastatin was from Cayman Chemical Co. (Ann Arbor, MI, USA). The lipopeptide myr-47WT, which is an N-terminally myristoylated peptide consisting of aa 2 to 47 of the preS1 region of HBV, and myr-47N9K, in which Asn at the 9th position is substituted with Lys, were synthesized by Scrum Co. (Tokyo, Japan)[11]. […] These cells (1 × 10^6 cells/ml) were preincubated at room temperature for 1 h in PMM supplemented with a peptide at 400 nM or a compound at the indicated concentration, and were then infected with HBV at 1,000 GEq/cell in the presence of the preS1 peptide or compounds at the same concentration as in the preincubation. The resulting cells were washed three times with PBS at 1 dpi and incubated in fresh PMM supplemented with 10% FBS. Cells were then re-seeded at 2 dpi at a density of 2 × 10^4 cells/well (48-well plate) or 4 × 10^4 cells/well (24-well plate) and maintained in PMM supplemented with 10% FBS. The resulting cells and culture supernatants were collected at each indicated dpi in order to evaluate viral RNA and DNA.
(§5) Total RNA was extracted using the RNeasy Mini Kit (Qiagen, Valencia, CA, USA), followed by DNase digestion using the TURBO DNA-free kit (Ambion, Austin, TX, USA). The resulting RNA preparation was reverse-transcribed using ReverTra Ace qPCR RT Master Mix (TOYOBO, Tokyo, Japan) according to the manufacturer’s protocol. Viral DNA was extracted from culture supernatants using the QIAamp DNA Mini Kit (Qiagen) according to the manufacturer’s protocol. The amounts of viral DNA and RNA were measured by real-time quantitative PCR (qPCR) and real-time quantitative reverse transcriptase (qRT)-PCR, respectively. The amounts of intracellular HBV RNA and supernatant HBV DNA were estimated according to the method described by Yan et al.[11]. The amounts of NTCP and GAPDH mRNAs were estimated by real-time qRT-PCR using the primer pairs 5′-[…]-3′ and 5′-[…]-3′, and 5′-[…]-3′ and 5′-[…]-3′, respectively. Real-time PCR was carried out using the Fast SYBER Green Master Mix (Applied BioSystems) and StepOne Plus Real-Time PCR System (Applied BioSystems). The amounts of HBs and HBe antigens in culture supernatants were estimated by a chemiluminescent immunoassay (SRL Inc., Tokyo, Japan).
Supplementary Figure 4. […]

HepG2/NTCPA3 cells = assay: in vitro
Experimental: as §1, §2, §3, §4

HBV [2] = assay: Supernatant HBe antigen after HBV infection in the presence of compound (chemiluminescence immunoassay); type: cell-based, Hepatitis B virus (genotype D); details: non-adherent HepG2/NTCPA3 cells, HBV 1,000 GEq/cell, supernatant at 12 dpi
Experimental: as §5
Cell viability was measured
Culture supernatants were collected at
antigen was quantified by a chemiluminescence immunoassay. j. HepG2/NTCPA3 cells

HBV [3] = assay: Effect on HBV replication, compound added after infection (intracellular HBV RNA); type: cell-based, Hepatitis B virus (genotype D); details: compound added at 3 dpi, harvested at 6 dpi, HepG2/NTCPA3, HBV 1,000 GEq/cell
Experimental: The resulting cells were harvested at 6 dpi. The amount of intracellular HBV RNA was quantified by real-time qRT-PCR (black bars) and is presented as the percentage of the control value (DMSO). Cell viability was evaluated (gray bars). Data were calculated from 3 to 5 independent experiments and are expressed as means ± SD.
as §5, with “The amounts of HBs and HBe antigens in culture supernatants were estimated by a chemiluminescent immunoassay (SRL Inc., Tokyo, Japan).” left out

NTCP [4] = biological target: T1, NTCP (Homo sapiens, UniProt Q14973); assay: Competitive binding assay: compounds versus myr-47WT binding to HepG2/NTCPA3 cells (FACS); details: compounds at 10 μM (proscillaridin A 10 to 100 μM)
T1 construct: expressed in transfected cells; plasmid pEF pGKpuro, puromycin selection
T1 sequence (Q14973 1-349): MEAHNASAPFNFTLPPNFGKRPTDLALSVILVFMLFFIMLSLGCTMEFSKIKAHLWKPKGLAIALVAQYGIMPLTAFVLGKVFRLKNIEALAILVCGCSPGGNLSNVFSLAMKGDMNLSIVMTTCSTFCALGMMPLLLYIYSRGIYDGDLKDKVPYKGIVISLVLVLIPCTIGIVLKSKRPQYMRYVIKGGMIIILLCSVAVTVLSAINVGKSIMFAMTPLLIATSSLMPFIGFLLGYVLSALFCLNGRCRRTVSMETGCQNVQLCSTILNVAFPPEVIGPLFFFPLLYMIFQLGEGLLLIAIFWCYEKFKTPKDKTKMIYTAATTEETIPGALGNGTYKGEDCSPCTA
Experimental: After washing twice with 2% FBS/PBS, the resulting cells were analyzed by FACS analysis.
Supplementary Figure 5. Effects of compounds on the binding ability of preS1 lipopeptide to HepG2/NTCPA3 cells. a and b. HepG2/NTCPA3 cells were pretreated with DMSO for 30 min and then were treated with myr-47N9K (a) or myr-47WT (b) in the presence of DMSO for an additional 30 min. The resulting cells were subjected to FACS analysis. c to h. HepG2/NTCPA3 cells were pretreated with the indicated concentration of each compound for 30 min and then were treated with myr-47WT in the presence of each compound for an additional 30 min. […]
fluvastatin (d), proscillaridin A (e, f and g), and azelastine (h) on preS1 binding were analyzed using FACS analysis, as described in the Materials and Methods section.
(1 picture or pasted object on this page, not shown here)

NTCP [5] = details: read-out: IC50 for inhibition of NTCP-mediated taurocholic acid uptake; cited from earlier work
[6] = non-adherent HepG2/NTCPA3 cells, HBV 1,000 GEq/cell, compound from 1 h pre-infection to 1 dpi, HBV RNA at 6 dpi
[7] = non-adherent HepG2/NTCPA3 cells, compound from 1 h pre-infection to 1 dpi

Row | Compound | CC50 (in vitro) | IC50 (HBV [1]; [6]) | IC50 (HBV [1]; HepG2, 1 h) | Selectivity Index (HBV [1]) | Inhibition of HBV infection (in words) (HBV [1]; [7]) | further results
1 | CN1CCCC(n2nc(Cc3ccc(Cl)cc3)c3ccccc3c2=O)CC1 (stereo not drawn) [Azelastine] | > 30000 nM | > 30000 nM | – | – | – | Inhibitory effect on HBV infection (in words) (HBV [1]; at 0.01 to 1 μM, non-adherent HepG2/NTCPA3 cells): moderate and significant inhibitory effects
2 | C[C@]12CC[C@H](O)C[C@H]1CC[C@@H]1[C@@H]2CC[C@]2(C)[C@@H](c3ccc(=O)oc3)CC[C@]12O [Bufalin] | 479 ± 64.7 nM | – | 32.4 ± 11.3 nM | 15.8 ± 4.3 | inhibited HBV infection in a dose-dependent manner | Inhibition of HBV infection (in words) (HBV [1]; non-adherent HepG2/NTCPA3 cells, compound from 1 h pre-infection to 1 dpi, listed as bufalin): inhibited HBV infection
3 | C[C@@H]1O[C@@H](O[C@H]2CC[C@]3(C=O)[C@H]4CC[C@]5(C)[C@@H](C6=CC(=O)OC6)CC[C@]5(O)[C@@H]4CC[C@]3(O)C2)[C@H](O)[C@H](O)[C@H]1O [Convallatoxin] | 156 ± 53.8 nM | – | 10.7 ± 3.6 nM | 15.7 ± 4.7 | inhibited HBV infection in a dose-dependent manner | –
4 | C[C@H]1O[C@@H](O[C@H]2[C@@H](O)C[C@H](O[C@H]3[C@@H](O)C[C@H](O[C@H]4CC[C@@]5(C)[C@H](CC[C@@H]6[C@@H]5CC[C@]5(C)[C@@H](C7=CC(=O)OC7)CC[C@]65O)C4)O[C@@H]3C)O[C@@H]2C)C[C@H](O)[C@@H]1O [Digitoxin] | 1730 ± 384 nM | 93.3 ± 15.3 nM | – | 18.9 ± 3.4 | inhibited HBV infection in a dose-dependent manner | –
5 | C[C@H]1O[C@@H](O[C@H]2[C@@H](O)C[C@H](O[C@H]3[C@@H](O)C[C@H](O[C@H]4CC[C@@]5(C)[C@H](CC[C@@H]6[C@@H]5C[C@@H](O)[C@]5(C)[C@@H](C7=CC(=O)OC7)CC[C@]65O)C4)O[C@@H]3C)O[C@@H]2C)C[C@H](O)[C@@H]1O [Digoxin] | 1430 ± 277 nM | > 100 nM | – | – | did not inhibit HBV infection | –
6 | CC(C)n1c(/C=C/C(O)CC(O)CC(=O)O)c(-c2ccc(F)cc2)c2ccccc21 (stereo not drawn) [Fluvastatin] | > 100000 nM | > 30000 nM | – | – | did not inhibit; also recorded: not by treatment with fluvastatin | Cytotoxicity (in words) (HepG2/NTCPA3 cells): not cytotoxic
7 | C[C@@H]1O[C@@H](O[C@@H]2C=C3CC[C@@H]4[C@H](CC[C@]5(C)[C@@H](c6ccc(=O)oc6)CC[C@]45O)[C@@]3(C)CC2)[C@H](O)[C@H](O)[C@H]1O [Proscillaridin A] | 496 ± 140 nM | 7.2 ± 2.5 nM | – | 75.5 ± 26.7 | inhibited HBV infection | Amount of supernatant HBe antigen (HBV [2]): reduced; Amount of HBV RNA in cells treated after infection (HBV [3]): not decreased; also recorded: did not exhibit an inhibitory effect on the viral replication; Effect on binding of myr-47WT (200 nM) to the cell surface of HepG2/NTCPA3 (NTCP [4]): negligible effect; Anti-HBV effect in non-adherent cells compared with adherent cells (HBV [1]; 0, 10 or 30 nM, HBV 1,000 GEq/cell, HBV RNA): similar; IC50 (NTCP [5]): 22000 nM
8 | CCC(C)(C)C(=O)O[C@H]1C[C@@H](C)C=C2C=C[C@H](C)[C@H](CC[C@@H]3C[C@@H](O)CC(=O)O3)[C@H]21 [Simvastatin] | > 30000 nM | – | 5200 ± 600 nM | – | – | Amount of HBV RNA in cells treated after infection (HBV [3]): not decreased; also recorded: did not exhibit an inhibitory effect on the viral replication; Inhibition of HBV infection (in words) (HBV [1]): inhibited HBV infection
